# From patent US8106075B2, “Insecticides” (Syngenta Crop Protection, Inc., priority 2004, dated 2012)
# Key:
# Spodoptera littoralis = experiment: B10a: Systemic Insecticide Test for Spodoptera littoralis (cotton leafworm); assay type: in vivo; conditions: systemic via maize seedlings, 1st instar larvae
# Description: […] Seedlings are allowed to grow for six days. Subsequently leaves are cut and placed in a Petri dish (5 cm diameter), inoculated with twelve to fifteen 1st instar S. littoralis larvae and incubated for four days in a growth chamber (25° C., 50% r.h., 18:6 L:D photo period). Number of alive insects are counted and percentage of dead calculated. Tests were conducted with one replicate.
# Plutella xylostella = experiment: B10c: Insecticide Test for Plutella xylostella (diamond back moth); assay type: in vivo; conditions: sprayed Chinese cabbage leaf disks, L3 larvae
# Description: Chinese cabbage plants were sprayed with insecticide at 3, 0.8, 0.2 and 0.05 ppm. Five cm diameter leaf disks were cut and placed in a Petri dish containing 6 ml agar (0.8%). Five P. xylostella larvae L3 were introduced into Petri dishes and kept at 26±2° C., 50±10% r.h. in a dark room (two replicates per treatment). […]
# Heliothis virescens = experiment: B10b: Insecticide Test for Heliothis virescens (tobacco budworm); assay type: in vivo; conditions: for Percent larvae showing growth reduction (compared to control): eggs on artificial diet topically treated, one week; for mortality at 0.05 ppm / mortality at 0.2 ppm / mortality at 0.8 ppm / mortality at 3 ppm: Heliothis virescens, topical, 168 h, read-out: Percent larvae mortality
# Description: 50-60 newly laid H. virescens eggs were placed on artificial diet in Petri dishes (5 cm diameter) and topically treated with 0.8 ml solution of compounds at the following rates: 3, 0.8, 0.2, 0.05. Petri dishes are maintained at 26±2° C., 50±10% r.h. in a dark room and assessment conducted one week after application (two replicates/treatment). Larvae mortality and effects on larvae growth were compared to the control.
# Diabrotica balteata = experiment: Example B2: activity against Diabrotica balteata, sprayed maize seedlings; conditions: in Zea mays, 144 h, read-out: percentage reduction in the population (% activity)
Structure (SMILES),Death rate (%) after 4 days (Spodoptera littoralis; 0.2 ppm),Death rate (%) after 4 days (Spodoptera littoralis; 0.8 ppm),Death rate (%) after 4 days (Spodoptera littoralis; 3 ppm),Death rate (%) (Plutella xylostella; 0.05 ppm),Death rate (%) (Plutella xylostella; 0.2 ppm),Death rate (%) (Plutella xylostella; 0.8 ppm),Death rate (%) (Plutella xylostella; 3 ppm),Percent larvae showing growth reduction (compared to control) (Heliothis virescens; 0.05 ppm),Percent larvae showing growth reduction (compared to control) (Heliothis virescens; 0.2 ppm),Percent larvae showing growth reduction (compared to control) (Heliothis virescens; 0.8 ppm),Percent larvae showing growth reduction (compared to control) (Heliothis virescens; 3 ppm),mortality at 0.05 ppm (Heliothis virescens),mortality at 0.2 ppm (Heliothis virescens),mortality at 0.8 ppm (Heliothis virescens),mortality at 3 ppm (Heliothis virescens),inhibition at 400 ppm (Diabrotica balteata)
"Cc1cccc(C(=O)NCC2CO2)c1NC(=O)c1cc(C(F)(F)F)nn1-c1ncccc1Cl (stereo not shown) [Comp. 566, reference compound]",0%,0%,0%,0%,10%,5%,25%,0%,0%,0%,0%,0%,0%,0%,0%,
"Cc1cc(Cl)cc(C(=O)NCC2CCO2)c1NC(=O)c1cc(C(F)(F)F)nn1-c1ncccc1Cl (stereo not shown) [Compound P25, N-(4-chloro-2-methyl-6-[([oxetan-2-ylmethyl]amino)carbonyl]phenyl)-1-(3-chloro-2-pyridinyl)-3-(trifluoromethyl)-1H-pyrazole-5-carboxamide]",,,,,,,,,,,,,,,,> 80%
Cc1cccc(C(=O)NCC2CC2)c1NC(=O)c1cc(C(F)(F)F)nn1-c1ncccc1Cl [Compound P41],20%,80%,100%,0%,0%,80%,60%,0%,45%,100%,100%,0%,0%,0%,0%,
